This note sets out measurements from PMC3596305, “Escherichia coli NemA Is an Efficient Chromate Reductase That Can Be Biologically Immobilized to Provide a Cell Free System for Remediation of Hexavalent Chromium” (PLoS ONE, 2013).

In the experiment the test system is T1, KefF_Pa.
T1 construct: gene kefF
The experiment can be described thus: diphenylcarbazide Cr(VI) assay, Lineweaver-Burk. The format is biochemical. The conditions noted are these: 1 mM NADH, 50 mM Tris-Cl pH 7.0, 22°C; read-out: KM (μM) ^b. The source says:
diphenylcarbazide Cr(VI) assay, Lineweaver-Burk on KefF_Pa

Regarding `[O]=[Cr](=[O])([OH])[OH]` [Cr(VI)], the Km came out at 140 µM.
